Where two headings read alike, the source gives them in different places.
Assays:
DDB1 [1] = molecular target: T1, DDB1 (Homo sapiens, UniProt Q16531); experiment: SPR; format: binding; conditions: read-out: estimated KD; biotinylated protein immobilised; pH […] °C, […] DMSO
DDB1 [2] = molecular target: T1, DDB1; experiment: SPR; format: binding; conditions: biotinylated protein immobilised; pH […] °C, […] DMSO; site at W1047, Y1114

T1 sequence (Q16531 2-1140): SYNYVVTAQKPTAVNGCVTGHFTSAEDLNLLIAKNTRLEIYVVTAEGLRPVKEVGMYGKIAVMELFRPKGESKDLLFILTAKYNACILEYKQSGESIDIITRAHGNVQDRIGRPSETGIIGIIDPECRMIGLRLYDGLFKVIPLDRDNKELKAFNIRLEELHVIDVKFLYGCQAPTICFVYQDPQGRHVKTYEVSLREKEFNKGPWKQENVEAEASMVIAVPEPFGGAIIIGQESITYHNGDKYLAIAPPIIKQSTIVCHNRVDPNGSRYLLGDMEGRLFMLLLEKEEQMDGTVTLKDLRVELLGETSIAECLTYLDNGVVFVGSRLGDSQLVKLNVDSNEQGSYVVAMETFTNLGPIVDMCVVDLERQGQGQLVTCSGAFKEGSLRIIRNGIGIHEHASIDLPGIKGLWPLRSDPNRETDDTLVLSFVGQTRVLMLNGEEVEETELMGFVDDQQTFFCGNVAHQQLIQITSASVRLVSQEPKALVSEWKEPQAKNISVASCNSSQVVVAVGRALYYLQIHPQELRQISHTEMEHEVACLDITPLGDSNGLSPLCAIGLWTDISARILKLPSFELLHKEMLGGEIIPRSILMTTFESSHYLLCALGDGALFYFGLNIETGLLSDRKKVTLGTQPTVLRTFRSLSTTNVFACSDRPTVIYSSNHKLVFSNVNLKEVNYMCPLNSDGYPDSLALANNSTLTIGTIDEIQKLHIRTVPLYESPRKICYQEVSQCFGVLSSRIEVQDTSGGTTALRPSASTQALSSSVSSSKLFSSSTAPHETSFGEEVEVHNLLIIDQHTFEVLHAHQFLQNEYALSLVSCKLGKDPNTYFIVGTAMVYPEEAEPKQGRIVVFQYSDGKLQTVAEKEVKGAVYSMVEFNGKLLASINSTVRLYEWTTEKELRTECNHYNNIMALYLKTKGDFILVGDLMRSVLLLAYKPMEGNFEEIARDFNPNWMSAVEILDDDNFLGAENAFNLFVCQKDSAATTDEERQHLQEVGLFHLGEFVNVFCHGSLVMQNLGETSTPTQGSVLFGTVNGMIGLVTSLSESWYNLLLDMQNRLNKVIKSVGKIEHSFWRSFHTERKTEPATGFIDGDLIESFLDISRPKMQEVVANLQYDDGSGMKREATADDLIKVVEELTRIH

CCOc1cccc([C@H]2CC(=O)Nc3c2c(C)nn3-c2ccc3nncn3n2)c1 [(R)-XS381952]
Kd (DDB1 [1]): > 73 µM

CCOc1cccc([C@@H]2CC(=O)Nc3c2c(C)nn3-c2ccc3nncn3n2)c1 [(S)-XS381952]
Kd (DDB1 [2]): 2 µM

From PMC11785093 (bioRxiv, 2025)
